Assay results reported in patent US6420367B1, “Pyrimidine derivatives exhibiting antitumor activity” (Shionogo & Co., Ltd., priority 1998, dated 2002).
Values after ≈ are worked out from the molar mass of the structure shown.

Experiments:
human colon cancer HT29 = test: In vitro cell growth inhibition test, MTT assay; assay type: cell-based; conditions: MTT assay 4 days after compound addition
Source text: (§1) Test Example 2 In Vitro Cell Growth Inhibition Test Cells and MTT Assay
(§2) Human squamous lung cancer […], human squamous lung cancer Ma44, human lung adenocarcinoma A549, human colon cancer HT29 and human pancreas cancer PANC-1 were used.

[1] = test system: human lung adenocarcinoma A549; test: In vitro cell growth inhibition test, MTT assay; assay type: cell-based; conditions: MTT assay 4 days after compound addition
Source text: as §1, §2

[2] = test system: human squamous lung cancer Ma44; test: In vitro cell growth inhibition test, MTT assay; assay type: cell-based; conditions: MTT assay 4 days after compound addition
Source text: as §1, §2

[3] = test system: human squamous lung cancer RERF-RC-AI; test: In vitro cell growth inhibition test, MTT assay; assay type: cell-based; conditions: MTT assay 4 days after compound addition
Source text: as §1, §2

[4] = test system: human pancreas cancer PANC-1; test: In vitro cell growth inhibition test, MTT assay; assay type: cell-based; conditions: MTT assay 4 days after compound addition
Source text: as §1, §2

[5] = test system: DT-R cells (pRRE3-luc-transfected v-ki-ras-transformed NIH3T3 cells); signal derived from Ras oncogene products; test: Inhibitory effect against cellular signaling derived from Ras oncogene products: luciferase reporter, dissociation of DT-R from DT-C activity (MAC); assay type: cell-based, mouse; conditions: minimal tested concentration at which luciferase activities of DT-C cells and DT-R cells dissociated
Source text: Test Example 1 Inhibitory Effect Against Cellular Signaling Derived From Ras Oncogene Products
1) Establishment of Cell Lines Used in Assay
Based on the reporter plasmid (pGV-P (Toyo Ink, Japan)), in which luciferase gene was ligated to SV40-derived minimal promoter, we constructed a plasmid designated pRRE3-luc by inserting 3 copies of chemically synthesized oligonucleotides (Sequence: CAGGATATGACTCT, derived from mouse NVL-3 (M. A. Reddy et al.(1992)Mol. Endocrinol., 6, 1051)) into upstream of the promoter. v-ki-ras-transformed NIH3T3 cells (DT cells, provided by Dr. Makoto Noda (Kyoto Univ., School of medicine)) were transfected with this plasmid by liposome-mediated transfection and transfected cell lines stably incorporated and maintained each plasmid were obtained. We named pGV-P and pRRE3-transfected cell line as DT-C and DT-R, respectively and used in the assay described below.
2) Preparation of Samples
i) All the cell lines were cultured in Dulbecco's Modified Essential Medium (DMEM: 10% Fetal Calf Serum(FCS: Hyclone, USA)) including […] kanamycin (Meiji Seika, Japan) in humidified incubator under condition of 5% CO2 at 37° C.
ii) DT-C and DT-R cells were seeded at 2500 cells/well into flat-bottom 96 well multiplate (Sumitomo bakelite) and incubated for 24 hours.
iii) Test compounds were prepared as 1 mg/ml DMSO solution.
iv) The solution of test compounds were added to the culture. Tested compounds are used at the concentration from […] to 0.51 ng/ml with by 3-fold dilution.
v) After 24 hours, the culture supernatant was completely aspirated and […] of cell-lysing solution (PGC-50 (Toyo Ink, Japan)) was added before cells were dried up. In order to the cells were lysed completely, multiwell plates were left at room temperature for 10 to 30 min. The plates were wrapped up and stored at −20° C. till the day of measurement.
3) Measurement of Samples
i) Melt the samples by putting 96 well multiplate at 37° C. and add 90 μl/well 25 mM Tris (pH 7.5).
ii) Transfer 50 μl of the sample (110 μl) to the 96 well microplate for measurement (Microlite 1 (Dynatech)).
iii) Measure the samples by the luminometer, LUMINOUS CT9000D (Dia-Yatron, Japan). We used Pickagene luminescence kit PGL2000 or LT2.0 (Toyo Ink, Japan) as substrates for luminescence measurement (50 μl/well).
4) Judgment of the Results
i) The luciferase activity of DT-C cells and DT-R cells were plotted in the graph where the relative activity and the compound concentration were expressed as Y-axis and X-axis, respectively. We judged by the degree of dissociation between the activities of DT-C cells and DT-R cells as an index.
ii) Concretely, efficacy of the compound was expressed by two values described below.
a) Among the points of concentration tested, the minimal concentration (Minimal Active Concentration: MAC), at which the activities of DT-C cells and DT-R cells dissociated, was shown as an index of efficacy of the compound.

Row | SMILES | IC50, HT29 (human colon cancer HT29) [µg/mL] | IC50, A549 [1] [µg/mL] | IC50, Ma44 [2] [µg/mL] | IC50, RERF-LC-AI [3] [µg/mL] | IC50, PANC-1 [4] [µg/mL] | MAC (Minimal Active Concentration) [5] [µg/mL]
1 | CCNC(=Nc1ncncc1CSc1nnc(-c2ccc(N)cc2)o1)NCCO [Compound A-113] | 0.076 (≈ 0.183 µM) | 0.62 (≈ 1.5 µM) | 1.2 (≈ 2.9 µM) | 0.027 (≈ 0.0651 µM) | – | –
2 | CCNC(=Nc1ncncc1CSc1nnc(-c2ccc(C(C)C)cc2)o1)NCC [Compound A-115] | 0.065 (≈ 0.153 µM) | 4.6 (≈ 10.8 µM) | 5.8 (≈ 13.6 µM) | 0.43 (≈ 1.01 µM) | – | –
3 | CCNC(=Nc1nc(C)ncc1CSc1nnc(-c2ccc(NC(C)=O)cc2)o1)NCC [Compound A-56] | – | 0.18 (≈ 0.396 µM) | 0.85 (≈ 1.87 µM) | – | 0.085 (≈ 0.187 µM) | –
4 | CCNC(=Nc1nc(C)ncc1CSc1nnc(-c2ccc(Cl)cc2)o1)NCC [Compound A-62] | – | – | 0.024 (≈ 0.0556 µM) | 0.0078 (≈ 0.0181 µM) | 0.017 (≈ 0.0394 µM) | 0.0412
5 | CNC(=Nc1nc(C)ncc1CSc1nnc(-c2ccc([N+](=O)[O-])cc2)o1)NC.Cl [Compound A-159] | – | – | – | – | – | 0.0412
6 | CCNC(=Nc1nc(C)ncc1CSc1nnc(-c2ccc(I)cc2)o1)NCC [Compound A-105] | 0.064 (≈ 0.122 µM) | 0.11 (≈ 0.21 µM) | 0.091 (≈ 0.174 µM) | – | 0.086 (≈ 0.164 µM) | –
7 | CCNC(=Nc1nc(C)ncc1CSc1nnc(-c2ccccc2NCC)o1)NC [Compound A-40] | 0.049 (≈ 0.115 µM) | – | 0.071 (≈ 0.166 µM) | – | – | 0.370
8 | Cc1ncc(CSc2nnc(-c3ccccc3N)o2)c(N=C(N)NCc2ccccc2)n1 [Compound A-12] | 0.51 (≈ 1.14 µM) | – | – | 0.87 (≈ 1.95 µM) | – | –
9 | CCNC(=Nc1nc(C)ncc1CSc1nnc(-c2ccccc2NC(=O)CC)o1)NC [Compound A-23] | – | 0.041 (≈ 0.0902 µM) | 0.025 (≈ 0.055 µM) | 0.0078 (≈ 0.0172 µM) | – | 0.123
10 | C=C(Br)CNC(=Nc1ncncc1CSc1nnc(-c2ccc(N)cc2)o1)NCC [Compound A-111] | 0.035 (≈ 0.0715 µM) | 0.097 (≈ 0.198 µM) | 0.4 (≈ 0.817 µM) | 0.017 (≈ 0.0347 µM) | – | 0.123
11 | CCNC(=Nc1nc(C)ncc1CSc1nnc(-c2ccc(OCC)cc2)o1)NCC [Compound A-101] | 0.052 (≈ 0.118 µM) | 0.79 (≈ 1.79 µM) | 0.21 (≈ 0.476 µM) | – | 0.077 (≈ 0.174 µM) | –
12 | CCCCNC(N)=Nc1nc(C)ncc1CSc1nnc(-c2ccccc2N)o1 [Compound A-9] | 0.1 (≈ 0.242 µM) | 0.09 (≈ 0.218 µM) | – | 0.025 (≈ 0.0606 µM) | – | –
13 | CCNC(=Nc1ncncc1CSc1nnc(-c2csc([N+](=O)[O-])c2)o1)NCC [Compound D-43] | 0.1 (≈ 0.23 µM) | 0.27 (≈ 0.621 µM) | 0.2 (≈ 0.46 µM) | 0.21 (≈ 0.483 µM) | 0.1 (≈ 0.23 µM) | –
14 | CCC(=O)Nc1ccccc1-c1nnc(SCc2cnc(C)nc2N=C(N)NC)o1 [Compound A-20] | – | – | – | 0.02 (≈ 0.0469 µM) | – | –
15 | CCNC(=Nc1nc(C)ncc1CSc1nnc(-c2ccccc2NC(C)=O)o1)NCC [Compound A-25] | – | 0.032 (≈ 0.0704 µM) | 0.031 (≈ 0.0682 µM) | 0.0078 (≈ 0.0172 µM) | – | 0.370
16 | CNC(N)=Nc1nc(C)ncc1CSc1nnc(-c2ccccc2N)o1.Cl.Cl [Compound A-5] | 0.15 | 0.16 | – | 0.2 | – | –
17 | CCNC(=Nc1ncncc1CSc1nnc(-c2ccc(-n3cccc3)nc2)o1)NCC [Compound D-35] | 0.025 (≈ 0.0556 µM) | 4.6 (≈ 10.2 µM) | 1.5 (≈ 3.34 µM) | 2.5 (≈ 5.56 µM) | – | –
18 | Cc1ncc(CSc2nnc(-c3ccc([N+](=O)[O-])cc3)o2)c(N=C(NCC(C)C)NCC(C)C)n1 [Compound A-129] | 0.3 (≈ 0.602 µM) | 0.43 (≈ 0.862 µM) | 0.33 (≈ 0.662 µM) | 0.17 (≈ 0.341 µM) | 0.21 (≈ 0.421 µM) | –
